Experimental data published in patent publication US20260308157A1, “Pyrrolopyrazine Compounds, Preparation Thereof and Therapeutic Uses Thereof” (Sanofi, priority 2023, published 2026).

Assays:
Cellular ERK5 Activity = biological target: T1, Cellular ERK5 Activity (Homo sapiens, UniProt Q13164); test: Inhibition of Cellular ERK5 Activity (cell-based assay, MEF2 luciferase reporter in SN12C cells); details: renal cancer cell line SN12C, doxycycline-induced MEK5DD, 0.3-10000 nM, mean where repeated
T1 construct: MEF2-response-element luciferase reporter (pGreenFire1)
Description: (§1) Two assays were performed to assess the ERK5 inhibitory activity of compounds of the Examples, a cell-based assay and a cell-free biochemical assay. Where repeat measurements were taken, the value reported is a mean average.
Inhibition of Cellular ERK5 Activity
The renal cancer cell line SN12C was transduced by a lentivirus pGreenFire1 MEF2 EF1 Neo (ref TR030VA-N) from SBI using standard infection protocol. pGreenFire1 MEF2 EF1 Neo allows the expression of luciferase gene under the control of minimal promoter with MEF2 transcriptional response elements. Cells harboring the reporter construct were selected by geneticin treatment. The selected cells were then transposed by a piggyback based plasmid pCM4007 allowing the expression of constitutively activated MEK5DD under control of TREG3 promoter, a doxycycline regulated promoter. Transposed cells were selected by puromycin treatment. Upon doxycycline treatment (1 μg/ml) MEK5DD was expressed. MEK5DD activates ERK5 that phosphorylates MEF2C protein. Activated MEF2C protein can bind to its transcriptional response elements. Then the luciferase is expressed. In a 96-well plate (96F nuncleon ref137101 thermofisher), 50,000 cells were inoculated in 142.5 μl of RPMI medium containing 10% fetal calf serum, 1% glutamine, and 1 μg/ml doxycycline. After 24 hours, compounds were added in 7.5 μl culture medium (with 2% DMSO to give a final concentration of 0.1%) in order to obtain the desired concentration (0.3-10000 nM). The luciferase activity was measured using the Kit Bright Glo Luminescent Cell Assay Cat E2610 (Promega) according to the manufacturer's protocol. Luminescence was determined using 0.2 second reading/well using a Tecan SPARK. IC50 values were calculated using XLFIT5 for Microsoft Excel using method 205. The IC50 values represent the concentration of compound which inhibits the measurable luminescence signal by 50% as compared to DMSO-treated control cells.

[1] = biological target: T2, activated catalytic domain of protein ERK5 (Homo sapiens, UniProt Q13164); test: Cell-Free Assay of ERK5 Inhibition (Time-Resolved Forster Resonance Energy Transfer); assay type: biochemical; details: ERK5 4 nM, 1 mM ATP, 1 μM biotinylated 4EBP1 peptide, 30 min at 37° C.; TR-FRET; mean where repeated
T2 construct: purchased CarnaBiosciences #04-146
Description: as §1
Cell-Free Assay of ERK5 Inhibition
An assay was performed to measure the capacity of each compound to inhibit ERK5 enzymatic activity. Compound potency was evaluated by Time-Resolved Forster Resonance Energy Transfer (FRET system). The activated catalytic domain of protein ERK5 (CarnaBiosciences #04-146) was mixed at 4 nM with varying concentrations of compound and incubated for 30 minutes at room temperature. A mixture of 1 mM ATP and 1 μM biotinylated synthetic peptide was added (Biosyntan GmbH). This synthetic peptide represents amino acids 30-52 of Eukaryotic translation initiation factor 4E-binding protein 1 (see, e.g., the sequence under accession No. NP_004086.1) biotinylated at the N-terminus. After 30 minutes at 37° C., the peptide phosphorylation by ERK5 was measured by addition of FRET reagents consisting of 12.5 µg/ml Streptavidin-XL665, 1 nM Anti-P-4EBP1 antibody and 300 ng/ml Anti-rabbit-K antibody. Following 90 minutes at room temperature fluorescent signals were read on the Pherastar FSX multimod detector from BMG Labtech (Exc° 340 nm, Em1 620 nm, Em2 665 nm). The IC50 values represent the concentration of compound which inhibits the measurable fluorescence signal by […] as compared to the DMSO only control.

T2 sequence (Q13164 55-347 limits assumed): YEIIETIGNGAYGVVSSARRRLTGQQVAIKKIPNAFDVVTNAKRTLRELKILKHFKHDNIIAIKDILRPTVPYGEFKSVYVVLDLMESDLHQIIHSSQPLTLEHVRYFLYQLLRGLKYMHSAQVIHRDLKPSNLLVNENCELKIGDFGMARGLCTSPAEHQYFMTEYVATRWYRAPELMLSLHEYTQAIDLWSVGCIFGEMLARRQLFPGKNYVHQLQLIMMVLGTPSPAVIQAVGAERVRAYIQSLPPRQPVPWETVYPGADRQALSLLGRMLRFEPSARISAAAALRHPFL
T1 sequence (Q13164 whole entry): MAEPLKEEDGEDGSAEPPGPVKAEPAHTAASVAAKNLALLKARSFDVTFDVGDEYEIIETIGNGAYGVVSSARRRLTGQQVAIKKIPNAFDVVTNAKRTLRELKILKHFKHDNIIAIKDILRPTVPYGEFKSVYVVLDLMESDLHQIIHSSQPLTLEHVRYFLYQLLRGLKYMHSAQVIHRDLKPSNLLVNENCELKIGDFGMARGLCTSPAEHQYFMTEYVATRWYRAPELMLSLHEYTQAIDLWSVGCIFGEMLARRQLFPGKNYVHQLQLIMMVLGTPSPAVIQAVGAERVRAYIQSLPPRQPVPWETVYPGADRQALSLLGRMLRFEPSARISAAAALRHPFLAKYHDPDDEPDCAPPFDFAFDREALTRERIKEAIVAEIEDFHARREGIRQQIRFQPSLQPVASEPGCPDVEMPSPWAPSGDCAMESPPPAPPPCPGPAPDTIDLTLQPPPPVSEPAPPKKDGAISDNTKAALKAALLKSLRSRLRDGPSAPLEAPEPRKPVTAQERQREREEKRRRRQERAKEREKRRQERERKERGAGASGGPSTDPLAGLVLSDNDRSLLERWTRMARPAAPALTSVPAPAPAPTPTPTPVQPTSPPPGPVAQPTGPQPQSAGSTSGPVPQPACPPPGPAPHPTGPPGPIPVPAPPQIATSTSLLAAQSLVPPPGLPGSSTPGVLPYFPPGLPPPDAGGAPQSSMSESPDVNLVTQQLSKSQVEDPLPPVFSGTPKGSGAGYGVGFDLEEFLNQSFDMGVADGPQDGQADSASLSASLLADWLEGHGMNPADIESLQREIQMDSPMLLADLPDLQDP

SMILES	IC50 (Cellular ERK5 Activity)	IC50 [1]
O=C(c1ccc(OC(F)(F)F)cc1)N1CCC(c2c[nH]c3ncc(C4CCOC4)nc23)CC1 (racemic) [Example 5, (rac)-[4-(2-Tetrahydrofuran-3-yl-5H-pyrrolo[2,3-b]pyrazin-7-yl)-1-piperidyl]-[4-(trifluoromethoxy)phenyl]methanone]	88 nM	212 nM
Nc1cc(OC(F)(F)F)ccc1C(=O)N1CCC(c2c[nH]c3ncc(C4CCOC4)nc23)CC1 (racemic) [Example 12, (rac)-[2-Amino-4-(trifluoromethoxy)phenyl]-[4-(2-tetrahydrofuran-3-yl-5H-pyrrolo[2,3-b]pyrazin-7-yl)-1-piperidyl]methanone]		130 nM
Nc1cc(OC(F)(F)F)ccc1C(=O)N1CCC(c2c[nH]c3ncc(C4CCOCC4)nc23)C1 (racemic) [Example 24, (rac)-[2-Amino-4-(trifluoromethoxy)phenyl]-[3-(2-tetrahydropyran-4-yl-5H-pyrrolo[2,3-b]pyrazin-7-yl)pyrrolidine-1-yl]methanone]	261 nM	
O=C(c1ccc(OC(F)(F)F)cc1)N1CCC(c2c[nH]c3ncc(C4CCOCC4)nc23)C1 (racemic) [Example 25, (rac)-[3-(2-Tetrahydropyran-4-yl-5H-pyrrolo[2,3-b]pyrazin-7-yl)pyrrolidin-1-yl]-[4-(trifluoromethoxy)phenyl]methanone]	230 nM	
O=C(c1ccc(OC(F)(F)F)cc1)N1CCC(c2c[nH]c3ncc(NC4CCOC4)nc23)CC1 (racemic) [Example 36, (rac)-[4-[2-[[tetrahydrofuran-3-yl]amino]-5H-pyrrolo[2,3-b]pyrazin-7-yl]-1-piperidyl]-[4-(trifluoromethoxy)phenyl]methanone]	124 nM	291 nM
Nc1cc(OC(F)(F)F)ccc1C(=O)N1CCC(c2c[nH]c3ncc(NC4CCOC4)nc23)CC1 (racemic) [Example 37, (rac)-[2-amino-4-(trifluoromethoxy)phenyl]-[4-[2-[[tetrahydrofuran-3-yl]amino]-5H-pyrrolo[2,3-b]pyrazin-7-yl]-1-piperidyl]methanone]	60 nM	94 nM
Nc1cc(S(F)(F)(F)(F)F)ccc1C(=O)N1CCC(c2c[nH]c3ncc(C4CCOCC4)nc23)C1 (racemic) [Example 43, (rac)-[2-amino-4-(pentafluoro-λ^6-sulfanyl)phenyl]-[3-(2-tetrahydropyran-4-yl-5H-pyrrolo[2,3-b]pyrazin-7-yl)pyrrolidin-1-yl]methanone]	357 nM	9720 nM
Nc1cc(OC(F)(F)F)ccc1C(=O)N1CCC(c2c[nH]c3ncc(C4CCOC4)nc23)CC1 (single isomer, unassigned) [Example 13, [2-Amino-4-(trifluoromethoxy)phenyl]-[4-(2-tetrahydrofuran-3-yl-5H-pyrrolo[2,3-b]pyrazin-7-yl)-1-piperidyl]methanone]	49 nM	93 nM
Nc1cc(OC(F)(F)F)ccc1C(=O)N1CCC(c2c[nH]c3ncc(C4CCOC4)nc23)CC1 (single isomer, unassigned) [Example 14, [2-Amino-4-(trifluoromethoxy)phenyl]-[4-(2-tetrahydrofuran-3-yl-5H-pyrrolo[2,3-b]pyrazin-7-yl)-1-piperidyl]methanone]	46 nM	99 nM
O=C(c1ccc(OC(F)(F)F)cc1)N1CCC(c2c[nH]c3ncc(NC4CCOC4)nc23)CC1 (single isomer, unassigned; isomer 1) [Example 32, [4-[2-[[tetrahydrofuran-3-yl]amino]-5H-pyrrolo[2,3-b]pyrazin-7-yl]-1-piperidyl]-[4-(trifluoromethoxy)phenyl]methanone, Isomer 1]	79 nM	361 nM
Nc1cc(OC(F)(F)F)ccc1C(=O)N1CCC(c2c[nH]c3ncc(NC4CCOC4)nc23)CC1 (single isomer, unassigned; isomer 1) [Example 34, [2-amino-4-(trifluoromethoxy)phenyl]-[4-[2-[[tetrahydrofuran-3-yl]amino]-5H-pyrrolo[2,3-b]pyrazin-7-yl]-1-piperidyl]methanone, Isomer 1]	> 10000 nM	94 nM
O=C(c1ccc(OC(F)(F)F)cc1)N1CCC(c2c[nH]c3ncc(NC4CCOC4)nc23)CC1 (single isomer, unassigned; isomer 2) [Example 33, [4-[2-[[tetrahydrofuran-3-yl]amino]-5H-pyrrolo[2,3-b]pyrazin-7-yl]-1-piperidyl]-[4-(trifluoromethoxy)phenyl]methanone, Isomer 2]	126 nM	335 nM
Nc1cc(OC(F)(F)F)ccc1C(=O)N1CCC(c2c[nH]c3ncc(NC4CCOC4)nc23)CC1 (single isomer, unassigned; isomer 2) [Example 35, [2-amino-4-(trifluoromethoxy)phenyl]-[4-[2-[[tetrahydrofuran-3-yl]amino]-5H-pyrrolo[2,3-b]pyrazin-7-yl]-1-piperidyl]methanone, Isomer 2]	246 nM	131 nM
CN1CCC(c2cnc3[nH]cc(C4CCN(C(=O)c5ccc(OC(F)(F)F)cc5N)CC4)c3n2)CC1 [Example 1, [2-Amino-4-(trifluoromethoxy)phenyl]-[4-[2-(1-methyl-4-piperidyl)-5H-pyrrolo[2,3-b]pyrazin-7-yl]-1-piperidyl]methanone]	20 nM	17 nM
Nc1cc(OC(F)(F)F)ccc1C(=O)N1CCC(c2c[nH]c3ncc(C4CCOCC4)nc23)CC1 [Example 2, [2-Amino-4-(trifluoromethoxy)phenyl]-[4-(2-tetrahydropyran-4-yl-5H-pyrrolo[2,3-b]pyrazin-7-yl)-1-piperidyl]methanone]	15 nM	37 nM
O=C(c1ccc(OC(F)(F)F)cc1)N1CCC(c2c[nH]c3ncc(C4CCOCC4)nc23)CC1 [Example 3, [4-(2-Tetrahydropyran-4-yl-5H-pyrrolo[2,3-b]pyrazin-7-yl)-1-piperidyl]-[4-(trifluoromethoxy)phenyl]methanone]	41 nM	172 nM
CN1CCC(c2cnc3[nH]cc(C4CCN(C(=O)c5ccc(OC(F)(F)F)cc5)CC4)c3n2)CC1 [Example 4, [4-[2-(1-Methyl-4-piperidyl)-5H-pyrrolo[2,3-b]pyrazin-7-yl]-1-piperidyl]-[4-(trifluoromethoxy)phenyl]methanone]	60 nM	66 nM
COCCCc1cnc2[nH]cc(C3CCN(C(=O)c4ccc(OC(F)(F)F)cc4)CC3)c2n1 [Example 6, [4-[2-(3-Methoxypropyl)-5H-pyrrolo[2,3-b]pyrazin-7-yl]-1-piperidyl]-[4-(trifluoromethoxy)phenyl]methanone]	118 nM	403 nM
COCCCc1cnc2[nH]cc(C3CCN(C(=O)c4ccc(OC(F)(F)F)cc4N)CC3)c2n1 [Example 7, [2-Amino-4-(trifluoromethoxy)phenyl]-[4-[2-(3-methoxypropyl)-5H-pyrrolo[2,3-b]pyrazin-7-yl]-1-piperidyl]methanone]	56 nM	169 nM
Nc1cc(OC(F)(F)F)ccc1C(=O)N1CCC(c2c[nH]c3ncc([C@H]4CC[C@H](O)CC4)nc23)CC1 [Example 30, trans-[2-amino-4-(trifluoromethoxy)phenyl]-[4-[2-(4-hydroxycyclohexyl)-5H-pyrrolo[2,3-b]pyrazin-7-yl]-1-piperidyl]methanone]		39 nM
